According to ChEMBL document CHEMBL4706476, “Novel Tetrahydropyrido[4,3-d]pyrimidines as Potent Inhibitors of Chaperone Heat Shock Protein 90” (J Med Chem, 2016):
Values after ≈ are worked out from the molar mass of the structure shown. Active and inactive are the calls of the source. No cut-off for these calls is given here.

Legend:
[1] = Drug distribution in spleen of mouse xenografted with human HCT-116 cells at 60 mg/kg, iv by LC-MS/MS analysis; settings: in vivo
[2] = Cmax in rat at 50 mg/kg, po measured upto 24 hrs by LC-MS/MS analysis; assay type: ADME, organism-based; parameters: route oral, dose 50 mg/kg, time <=24; settings: in vivo
[3] = AUC (0 to t) in rat at 50 mg/kg, po measured upto 24 hrs by LC-MS/MS analysis; assay type: ADME, organism-based; parameters: route oral, dose 50 mg/kg, time <=24; settings: in vivo
CYP2C19 = CYP2C19 (Homo sapiens, UniProt P33261); assay: Inhibition of CYP2C19 in human liver microsomes at 10 uM using mephenytoin as substrate preincubated for 5 mins followed by NADPH addition and measured after 20 mins by LC-MS/MS analysis relative to control; settings: probe mephenytoin
Sequence of CYP2C19 (P33261 whole entry): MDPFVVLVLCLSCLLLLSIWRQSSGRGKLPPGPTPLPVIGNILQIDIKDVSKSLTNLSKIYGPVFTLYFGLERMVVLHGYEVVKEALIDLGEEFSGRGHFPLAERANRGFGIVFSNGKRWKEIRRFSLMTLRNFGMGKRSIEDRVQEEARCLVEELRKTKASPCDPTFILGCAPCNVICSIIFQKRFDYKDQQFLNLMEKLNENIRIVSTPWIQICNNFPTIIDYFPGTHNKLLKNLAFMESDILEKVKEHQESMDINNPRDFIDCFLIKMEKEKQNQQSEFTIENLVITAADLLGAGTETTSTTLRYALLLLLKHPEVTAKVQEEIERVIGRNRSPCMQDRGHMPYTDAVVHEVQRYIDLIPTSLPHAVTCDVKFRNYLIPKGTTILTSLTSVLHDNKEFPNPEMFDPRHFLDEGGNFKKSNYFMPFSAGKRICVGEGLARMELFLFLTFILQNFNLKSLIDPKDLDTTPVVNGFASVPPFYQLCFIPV

[4] = Ocular toxicity in Sprague-Dawley rat retina damage model assessed as induction of retinal cell death at 20 mg/kg, iv administered for 2 consecutive days by TUNEL staining based analysis; assay type: organism-based; settings: in vivo, 48 h, time 2 day
[5] = Apparent clearance during terminal phase in rat at 10 mg/kg, iv measured upto 24 hrs by LC-MS/MS analysis; assay type: ADME, organism-based; settings: in vivo
[6] = molecular target: Heat shock protein HSP 90-alpha (Homo sapiens, UniProt P07900); assay: Displacement of FITC-geldanamycin from N-terminal HSP90alpha (unknown origin) after 30 mins by fluorescence polarization competitive binding assay
MDA-MB-231 = assay: Antiproliferative activity against human MDA-MB-231 assessed as reduction in cell viability incubated for 72 hrs by MTT assay; assay type: functional, cell-based; settings: MDA-MB-231, 72 h
MDA-MB-468 = assay: Antiproliferative activity against human MDA-MB-468 assessed as reduction in cell viability incubated for 72 hrs by MTT assay; assay type: functional, cell-based; settings: MDA-MB-468, 72 h
CYP3A4 = CYP3A4 (Homo sapiens, UniProt P08684); assay: Inhibition of CYP3A4 in human liver microsomes at 10 uM using midazolam as substrate preincubated for 5 mins followed by NADPH addition and measured after 20 mins by LC-MS/MS analysis relative to control; assay type: ADME; settings: probe midazolam, time 25 min
Sequence of CYP3A4 (P08684 whole entry): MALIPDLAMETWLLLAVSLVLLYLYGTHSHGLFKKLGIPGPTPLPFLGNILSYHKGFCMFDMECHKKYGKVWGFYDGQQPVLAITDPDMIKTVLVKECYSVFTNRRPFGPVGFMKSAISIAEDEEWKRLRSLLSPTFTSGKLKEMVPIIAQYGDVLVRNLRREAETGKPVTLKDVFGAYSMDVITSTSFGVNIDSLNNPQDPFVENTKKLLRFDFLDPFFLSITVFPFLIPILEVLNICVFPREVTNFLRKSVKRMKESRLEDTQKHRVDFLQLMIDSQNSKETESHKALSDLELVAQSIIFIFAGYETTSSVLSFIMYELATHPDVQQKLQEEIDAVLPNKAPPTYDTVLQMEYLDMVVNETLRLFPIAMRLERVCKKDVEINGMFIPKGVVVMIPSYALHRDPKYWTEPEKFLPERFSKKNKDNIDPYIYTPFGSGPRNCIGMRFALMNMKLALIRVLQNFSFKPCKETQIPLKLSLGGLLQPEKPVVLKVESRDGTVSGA

[7] = Intrinsic clearance in human liver microsomes at 1 uM preincubated for 5 mins followed by NADPH addition and measured up to 120 mins by LC-MS/MS analysis; assay type: ADME, Microsome; settings: 2 h, time <=125 min
CYP1A2 = CYP1A2 (Homo sapiens, UniProt P05177); assay: Inhibition of CYP1A2 in human liver microsomes at 10 uM using phenacetin as substrate preincubated for 5 mins followed by NADPH addition and measured after 20 mins by LC-MS/MS analysis relative to control; assay type: ADME; settings: probe phenacetin, time 25 min
Sequence of CYP1A2 (P05177 whole entry): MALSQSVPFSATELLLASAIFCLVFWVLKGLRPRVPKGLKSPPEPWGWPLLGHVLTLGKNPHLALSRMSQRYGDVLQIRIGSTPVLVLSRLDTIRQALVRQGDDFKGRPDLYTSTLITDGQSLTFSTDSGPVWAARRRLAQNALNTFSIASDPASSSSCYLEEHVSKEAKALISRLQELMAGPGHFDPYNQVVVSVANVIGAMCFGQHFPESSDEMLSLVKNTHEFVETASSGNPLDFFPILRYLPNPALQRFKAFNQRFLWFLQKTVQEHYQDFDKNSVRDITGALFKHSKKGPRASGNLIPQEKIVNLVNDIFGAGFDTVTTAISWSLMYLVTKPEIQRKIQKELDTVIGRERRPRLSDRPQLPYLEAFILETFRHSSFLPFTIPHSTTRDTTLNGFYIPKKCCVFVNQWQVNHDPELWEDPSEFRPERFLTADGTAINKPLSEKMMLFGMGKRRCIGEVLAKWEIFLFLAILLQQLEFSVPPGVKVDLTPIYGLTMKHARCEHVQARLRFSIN

BT-474 = assay: Antiproliferative activity against human BT-474 assessed as reduction in cell viability incubated for 72 hrs by MTT assay; assay type: functional, cell-based; settings: BT-474, 72 h
[8] = Half-life in rat at 50 mg/kg, po measured upto 24 hrs by LC-MS/MS analysis; assay type: ADME, organism-based; settings: in vivo
[9] = Oral bioavailability in rat at 50 mg/kg measured upto 24 hrs by LC-MS/MS analysis; assay type: ADME, organism-based; settings: in vivo
[10] = Permeability of the compound at pH 7.4 by PAMPA; assay type: ADME; settings: read-out: permeability
[11] = Drug distribution in blood of mouse xenografted with human HCT-116 cells at 60 mg/kg, iv by LC-MS/MS analysis; settings: in vivo
[12] = Half-life in rat at 10 mg/kg, iv measured upto 24 hrs by LC-MS/MS analysis; assay type: ADME, organism-based; settings: in vivo
K562 = assay: Antiproliferative activity against human K562 assessed as reduction in cell viability incubated for 72 hrs by MTT assay; assay type: functional, cell-based; settings: K562, 72 h
[13] = AUC (0 to t) in rat at 10 mg/kg, iv measured upto 24 hrs by LC-MS/MS analysis; assay type: ADME, organism-based; parameters: route intravenous, dose 10 mg/kg, time <=24; settings: in vivo
CYP2C9 = CYP2C9 (Homo sapiens, UniProt P11712); assay: Inhibition of CYP2C9 in human liver microsomes at 10 uM using diclofenac as substrate preincubated for 5 mins followed by NADPH addition and measured after 20 mins by LC-MS/MS analysis relative to control; assay type: ADME; settings: probe diclofenac, time 25 min
Sequence of CYP2C9 (P11712 whole entry): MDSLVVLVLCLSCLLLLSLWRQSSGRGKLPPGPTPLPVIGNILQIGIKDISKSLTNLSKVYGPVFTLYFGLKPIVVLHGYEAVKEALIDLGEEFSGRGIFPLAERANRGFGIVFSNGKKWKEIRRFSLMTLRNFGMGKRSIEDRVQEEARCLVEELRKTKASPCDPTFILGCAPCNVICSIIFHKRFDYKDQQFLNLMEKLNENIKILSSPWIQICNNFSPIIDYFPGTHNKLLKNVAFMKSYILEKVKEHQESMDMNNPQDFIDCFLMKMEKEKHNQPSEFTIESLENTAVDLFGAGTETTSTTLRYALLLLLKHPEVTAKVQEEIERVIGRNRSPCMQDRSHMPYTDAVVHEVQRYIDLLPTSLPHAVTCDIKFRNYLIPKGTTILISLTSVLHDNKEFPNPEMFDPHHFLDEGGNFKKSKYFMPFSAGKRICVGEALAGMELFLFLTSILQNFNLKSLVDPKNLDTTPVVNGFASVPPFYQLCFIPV

[14] = Apparent clearance during terminal phase in rat at 50 mg/kg, po measured upto 24 hrs by LC-MS/MS analysis; assay type: ADME, organism-based; settings: in vivo, read-out: CLz/F (converted)
U2OS = assay: Antiproliferative activity against human U2OS assessed as reduction in cell viability incubated for 72 hrs by MTT assay; assay type: functional, cell-based
T47D = assay: Antiproliferative activity against human T47D assessed as reduction in cell viability incubated for 72 hrs by MTT assay; assay type: functional, cell-based
HCT-116 = assay: cells; settings: Homo sapiens, HCT-116, 72 h
Description: Antiproliferative activity against human HCT-116 cells assessed as reduction in cell viability incubated for 72 hrs by MTT assay

MCF7 = assay: cells; settings: Homo sapiens, MCF7, 72 h
[15] = Metabolic stability in human liver microsomes assessed as parent compound remaining at 1 uM preincubated for 5 mins followed by NADPH addition and measured up to 120 mins by LC-MS/MS analysis; assay type: ADME, Microsome; settings: 2 h, time <=125 min
[16] = Apparent volume of distribution in rat at 50 mg/kg, po measured upto 24 hrs by LC-MS/MS analysis; assay type: ADME, organism-based; settings: in vivo
MV4-11 = assay: Antiproliferative activity against human MV4-11 assessed as reduction in cell viability incubated for 72 hrs by MTT assay; assay type: functional, cell-based; settings: MV4-11, 72 h
Endoplasmin = Endoplasmin (Homo sapiens, UniProt P14625); assay: Displacement of FITC-geldanamycin from N-terminal GRP94 (unknown origin) after 30 mins by fluorescence polarization competitive binding assay
Sequence of Endoplasmin (P14625 whole entry): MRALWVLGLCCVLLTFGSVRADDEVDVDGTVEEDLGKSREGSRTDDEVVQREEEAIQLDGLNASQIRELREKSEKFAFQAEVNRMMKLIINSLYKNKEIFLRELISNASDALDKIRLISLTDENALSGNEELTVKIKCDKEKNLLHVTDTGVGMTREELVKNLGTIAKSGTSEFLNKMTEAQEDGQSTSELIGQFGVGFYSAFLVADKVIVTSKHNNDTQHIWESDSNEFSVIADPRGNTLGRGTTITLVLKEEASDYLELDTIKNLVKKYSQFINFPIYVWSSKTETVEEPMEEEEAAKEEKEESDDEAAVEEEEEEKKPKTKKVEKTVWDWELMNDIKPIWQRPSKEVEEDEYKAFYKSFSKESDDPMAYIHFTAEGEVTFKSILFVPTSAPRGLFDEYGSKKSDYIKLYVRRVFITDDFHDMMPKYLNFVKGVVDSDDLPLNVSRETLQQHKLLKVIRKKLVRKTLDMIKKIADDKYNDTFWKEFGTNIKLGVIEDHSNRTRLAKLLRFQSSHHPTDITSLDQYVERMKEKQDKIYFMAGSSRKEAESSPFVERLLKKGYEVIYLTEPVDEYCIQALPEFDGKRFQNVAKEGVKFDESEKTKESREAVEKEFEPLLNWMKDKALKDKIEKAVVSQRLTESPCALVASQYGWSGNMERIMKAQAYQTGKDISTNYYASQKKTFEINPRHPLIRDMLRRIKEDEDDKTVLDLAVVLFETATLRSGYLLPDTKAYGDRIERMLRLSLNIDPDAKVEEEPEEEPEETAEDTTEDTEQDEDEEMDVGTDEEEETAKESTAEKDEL

MKN-28 = assay: Antiproliferative activity against human MKN-28 assessed as reduction in cell viability incubated for 72 hrs by MTT assay; assay type: functional, cell-based; settings: MKN-28, 72 h
[17] = Half life in human liver microsomes at 1 uM preincubated for 5 mins followed by NADPH addition and measured up to 120 mins by LC-MS/MS analysis; assay type: ADME, Microsome; settings: 2 h, time <=125 min
[18] = Drug concentration in tumor of mouse xenografted with human HCT-116 cells at 60 mg/kg, iv measured at 48 hrs by LC-MS/MS analysis; settings: in vivo
[19] = Intrinsic aqueous solubility of the compound; assay type: physicochemical
A549 = assay: Antiproliferative activity against human A549 assessed as reduction in cell viability incubated for 72 hrs by MTT assay; assay type: functional, cell-based; settings: A549, 72 h
[20] = Drug distribution in liver of mouse xenografted with human HCT-116 cells at 60 mg/kg, iv by LC-MS/MS analysis; settings: in vivo
L02 = assay: Cytotoxicity against human L02 cells assessed as reduction in cell viability incubated for 72 hrs by MTT assay; assay type: cell-based; settings: L02, 72 h
[21] = Apparent volume of distribution in rat at 10 mg/kg, iv measured upto 24 hrs by LC-MS/MS analysis; assay type: ADME, organism-based; settings: in vivo, read-out: Vz
[22] = Tmax in rat at 50 mg/kg, po measured upto 24 hrs by LC-MS/MS analysis; assay type: ADME, organism-based; settings: in vivo
[23] = Distribution coefficient, logD of compound at pH 7.4; assay type: physicochemical; settings: octanol/water
CYP2D6 = CYP2D6 (Homo sapiens, UniProt P10635); assay: Inhibition of CYP2D6 in human liver microsomes at 10 uM using dextromethorphan as substrate preincubated for 5 mins followed by NADPH addition and measured after 20 mins by LC-MS/MS analysis relative to control; assay type: ADME; settings: probe dextromethorphan, time 25 min
Sequence of CYP2D6 (P10635 whole entry): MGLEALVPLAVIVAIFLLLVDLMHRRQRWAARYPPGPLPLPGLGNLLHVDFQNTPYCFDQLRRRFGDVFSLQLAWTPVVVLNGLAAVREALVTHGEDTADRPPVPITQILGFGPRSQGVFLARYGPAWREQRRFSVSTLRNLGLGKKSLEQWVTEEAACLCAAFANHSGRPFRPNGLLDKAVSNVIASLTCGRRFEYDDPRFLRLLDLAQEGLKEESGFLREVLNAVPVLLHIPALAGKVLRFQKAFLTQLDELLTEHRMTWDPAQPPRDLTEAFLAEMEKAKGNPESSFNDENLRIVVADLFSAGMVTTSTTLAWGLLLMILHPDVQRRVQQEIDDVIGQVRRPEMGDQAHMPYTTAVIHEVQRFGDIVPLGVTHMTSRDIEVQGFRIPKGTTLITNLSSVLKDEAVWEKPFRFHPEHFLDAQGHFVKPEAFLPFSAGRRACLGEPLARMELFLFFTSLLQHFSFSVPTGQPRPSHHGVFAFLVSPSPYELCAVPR

HepG2 = assay: Antiproliferative activity against human HepG2 assessed as reduction in cell viability incubated for 72 hrs by MTT assay; assay type: functional, cell-based; settings: HepG2, 72 h
SK-BR-3 = assay: Antiproliferative activity against human SK-BR-3 assessed as reduction in cell viability incubated for 72 hrs by MTT assay; assay type: functional, cell-based; settings: SK-BR-3, 72 h
Rattus norvegicus [24] = assay: Ex vivo inhibition of HSP90 in Sprague-Dawley rat assessed as up regulation of HSP70 expression in retina at 10 mg/kg, iv administered for 2 consecutive days and measured 24 hrs post last dose by immunohistochemistry analysis; assay type: functional, organism-based; settings: time 3.0 day
[25] = Ocular toxicity in Sprague-Dawley rat retina damage model assessed as induction of retinal cell death at 10 mg/kg, iv administered for 2 consecutive days by TUNEL staining based analysis; assay type: organism-based; settings: in vivo, 48 h, time 2 day
Rattus norvegicus [26] = assay: Ex vivo inhibition of HSP90 in Sprague-Dawley rat assessed as up regulation of HSP70 expression in retina at 10 mg/kg, iv administered for 2 consecutive days and measured 24 hrs post last dose by Western blot analysis; assay type: functional, organism-based

For `CCNc1nc(OCCOC)nc2c1CN(C(=O)c1cc(C(C)C)c(O)cc1O)CC2`, the Drug uptake [1] was “Active”, the Cmax [2] was 72.6 ng/mL and the AUC(0-t) at 24 h [3] was 409 ng·h/mL. For the same compound, the inhibition at 20 min, 10 µM (CYP2C19) was 21%, the Activity [4] was “Non-Toxic” and the CLz/F [5] was 87.5 mL/min/kg. The IC50 [6] was 28 nM, the IC50 (MDA-MB-231) was 119 nM and the IC50 (MDA-MB-468) was 135 nM. For the same compound, the inhibition at 20 min, 10 µM (CYP3A4) was 22%, the CLint [7] was 4.45 mL/min/kg and the inhibition at 20 min, 10 µM (CYP1A2) was 8%. The IC50 (BT-474) was 95 nM, the half-life [8] was 9.4 h and the bioavailability [9] was 4.23%. The Papp [10] was 71.5 ×10⁻⁶ cm/s, the Drug uptake [11] was “Active” and the half-life [12] was 3.95 h. It also gave an IC50 (K562) of 119 nM, an AUC(0-t) at 24 h [13] of 1930 ng·h/mL and an inhibition at 20 min, 10 µM (CYP2C9) of 36%. It also gave a CL/F [14] of 2060 mL/min/kg, an IC50 (U2OS) of 52 nM and an IC50 (T47D) of 195 nM. For the same compound, the IC50 (HCT-116) was 140 nM, the IC50 (MCF7) was 100 nM and the Stabilty [15] was 90.4%. It also gave a Vz [16] of 1620.19 L/kg, an IC50 (MV4-11) of 27 nM and an IC50 (Endoplasmin) of 729 nM. For the same compound, the IC50 (MKN-28) was 434 nM, the t1/2 [17] was 3.53 h and the Ct [18] was greater than 3 uM/L. For the same compound, the solubility [19] was 192 µg/mL (≈ 447 µM), the IC50 (A549) was 194 nM and the Drug uptake [20] was “Active”. The IC50 (L02) was 34000 nM, the Vd [21] was 29.6 L/kg and the Tmax [22] was 0.5 h. The logD [23] was 2.32, the inhibition at 20 min, 10 µM (CYP2D6) was 48% and the IC50 (HepG2) was 153 nM. It also gave an IC50 (SK-BR-3) of 243 nM.
For `CCNC(=O)c1noc(-c2cc(C(C)C)c(O)cc2O)c1-c1ccc(CN2CCOCC2)cc1` [LUMINESPIB], the inhibition (Rattus norvegicus [24]) was “Active”, the Activity [25] was “Toxic” and the inhibition (Rattus norvegicus [26]) was “Active”.
